The text below walks through data of patent publication US10577349B2 (Sanford Burnham Prebys Medical Discovery Institute, priority 2015, dated 2020).

Structures are written as SMILES.

Experiment [1] deals with A375. The experiment in a line: 48 h Cytotoxicity A375. Particulars: Homo sapiens, A-375. The experiment is classed as cell-based.
Experiment [2] deals with EmCV Cap-dependent translation. In words: In vitro translation assay, FF-EmCV-Ren construct, cap-dependent (FF luciferase). The experiment is classed as biochemical, rabbit reticulocyte lysates. The essentials: (§1)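 Rabbit reticulocyte lysate with -Met/-Leu translation mixes pre-incubated with compound 1 h at room temperature, then 0.1 μg bicistronic RNA added and translated 2 h at 30° C. Dual-Glo read-out: FF signal reports cap-dependent, Ren signal IRES-driven translation. Counter assay adds compound after translation to flag luciferase interference.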

Experiment [3] addresses EmCV Cap-independent translation. The experiment in a line: In vitro translation assay, FF-EmCV-Ren construct, cap-independent (Ren luciferase). The class given is biochemical, rabbit reticulocyte lysates. The essentials:
as §1

Experiment [4] concerns the target HCV cap-dependent translation. The experiment in a line: In vitro translation assay, FF-HCV-Ren construct, cap-dependent (FF luciferase). The class given is biochemical, rabbit reticulocyte lysates. The essentials:
as §1

For experiment [5], the target named is HCV cap-independent translation. The experiment in a line: In vitro translation assay, FF-HCV-Ren construct, cap-independent (Ren luciferase). The experiment is classed as biochemical, rabbit reticulocyte lysates. The essentials: as §1

Usually IC50 stands for the concentration at which inhibition is half-maximal. Turning to `Cc1ccnc(-c2c(C(=O)/C=C/c3cncc(F)c3)c(=O)[nH]c3ccc(Cl)cc23)c1` [Compound 93, 3-[(2E)-3-(5-fluoro(3-pyridyl))prop-2-enoyl]-6-chloro-4-(4-methyl(2-pyridyl))hydroquinolin-2-one], the IC50 is less than 2 µM in experiment [1]; more than 20 µM in experiment [2]; 10 to 20 µM in experiment [3]; more than 20 µM in experiment [4]; more than 20 µM in experiment [5].

Take `Cc1ccnc(-c2c(C(=O)/C=C/c3ccccn3)c(=O)[nH]c3ccc(Cl)cc23)c1` [Compound 94, 3-((2E)-3-(2-pyridyl)prop-2-enoyl)-6-chloro-4-(4-methyl(2-pyridyl))hydroquinolin-2-one]: the IC50 in experiment [1] is 2 to 10 µM; in experiment [2], more than 20 µM; in experiment [3] it was more than 20 µM; in experiment [4] it was more than 20 µM; in experiment [5], more than 20 µM.

For `Cc1cncc(-c2c(C(=O)/C=C/c3ccccn3)c(=O)[nH]c3ccc(Cl)cc23)c1` [Compound 96, 3-((2E)-3-(2-pyridyl)prop-2-enoyl)-6-chloro-4-(5-methyl(3-pyridyl))hydroquinolin-2-one], the IC50 in experiment [1] is 2 to 10 µM; in experiment [2], 10 to 20 µM; in experiment [3] it was 2 to 10 µM; in experiment [4] it was more than 20 µM; in experiment [5] it was 10 to 20 µM.

Regarding `COc1cncc(-c2c(C(=O)/C=C/c3cncc(F)c3)c(=O)[nH]c3ccc(Cl)cc23)c1` [Compound 97, 3-[(2E)-3-(5-fluoro(3-pyridyl))prop-2-enoyl]-6-chloro-4-(5-methoxy(3-pyridyl))hydroquinolin-2-one], the IC50 in experiment [1] fell in the range of 2 to 10 µM; in experiment [2], 2 to 10 µM; in experiment [3], 2 to 10 µM; in experiment [4] it was 10 to 20 µM; in experiment [5], 2 to 10 µM.

For the compound `COc1cncc(-c2c(C(=O)/C=C/c3ccccn3)c(=O)[nH]c3ccc(Cl)cc23)c1` [Compound 98, 3-((2E)-3-(2-pyridyl)prop-2-enoyl)-6-chloro-4-(5-methoxy(3-pyridyl))hydroquinolin-2-one], the IC50 was in the range of 2 to 10 µM in experiment [1]; 10 to 20 µM in experiment [2]; 10 to 20 µM in experiment [3]; 10 to 20 µM in experiment [4]; 10 to 20 µM in experiment [5].

As for `O=C(/C=C/c1cncc(F)c1)c1c(-c2cncc(F)c2)c2cc(Cl)ccc2[nH]c1=O` [Compound 99, 3-[(2E)-3-(5-fluoro(3-pyridyl))prop-2-enoyl]-6-chloro-4-(5-fluoro(3-pyridyl))hydroquinolin-2-one], the 50% inhibitory concentration (IC50) was in the range of 2 to 10 µM in experiment [1]; 10 to 20 µM in experiment [2]; 2 to 10 µM in experiment [3]; 10 to 20 µM in experiment [4]; 2 to 10 µM in experiment [5].

For the compound `O=C(/C=C/c1ccccn1)c1c(-c2cncc(F)c2)c2cc(Cl)ccc2[nH]c1=O` [Compound 100, 3-((2E)-3-(2-pyridyl)prop-2-enoyl)-6-chloro-4-(5-fluoro(3-pyridyl))hydroquinolin-2-one], the IC50 in experiment [1] lay in the range of 2 to 10 µM; in experiment [2], 10 to 20 µM; in experiment [3], 10 to 20 µM; in experiment [4], 10 to 20 µM; in experiment [5] it was 10 to 20 µM.

Turning to `O=C(/C=C/c1cncc(F)c1)c1c(-c2cncc(Cl)c2)c2cc(Cl)ccc2[nH]c1=O` [Compound 101, 3-[(2E)-3-(5-fluoro(3-pyridyl))prop-2-enoyl]-6-chloro-4-(5-chloro(3-pyridyl))hydroquinolin-2-one], the IC50 in experiment [1] lay within 2 to 10 µM; in experiment [2] it was 2 to 10 µM; in experiment [3], 10 to 20 µM; in experiment [4], 10 to 20 µM; in experiment [5], 10 to 20 µM.

Turning to `O=C(/C=C/c1ccccn1)c1c(-c2cncc(Cl)c2)c2cc(Cl)ccc2[nH]c1=O` [Compound 102, 3-((2E)-3-(2-pyridyl)prop-2-enoyl)-6-chloro-4-(5-chloro(3-pyridyl))hydroquinolin-2-one], the IC50 in experiment [1] fell in the range of 2 to 10 µM; in experiment [2], 10 to 20 µM; in experiment [3], 10 to 20 µM; in experiment [4] it was 10 to 20 µM; in experiment [5], 10 to 20 µM.

`O=C(/C=C/c1cncc(F)c1)c1c(-c2cncc(Br)c2)c2cc(Cl)ccc2[nH]c1=O` [Compound 103, (E)-4-(5-Bromo-pyridin-3-yl)-6-chloro-3-[3-(5-fluoro-pyridin-3-yl)-acryloyl]-1H-quinolin-2-one]: the IC50 in experiment [1] lay within 2 to 10 µM; in experiment [2], 2 to 10 µM; in experiment [3] it was 2 to 10 µM; in experiment [4] it was 10 to 20 µM; in experiment [5], 2 to 10 µM.

With `O=C(/C=C/c1ccccn1)c1c(-c2cncc(Br)c2)c2cc(Cl)ccc2[nH]c1=O` [Compound 104, 3-((2E)-3-(2-pyridyl)prop-2-enoyl)-4-(5-bromo(3-pyridyl))-6-chlorohydroquinolin-2-one], the half-maximal inhibitory concentration (IC50) in experiment [1] lay in the range of 2 to 10 µM; in experiment [2], 2 to 10 µM; in experiment [3], 2 to 10 µM; in experiment [4], 10 to 20 µM; in experiment [5] it was 2 to 10 µM.

`N#Cc1cncc(-c2c(C(=O)/C=C/c3cncc(F)c3)c(=O)[nH]c3ccc(Cl)cc23)c1` [Compound 105, 5-{3-[(2E)-3-(5-fluoro(3-pyridyl))prop-2-enoyl]-6-chloro-2-oxo-4-hydroquinolyl}pyridine-3-carbonitrile]: the IC50 in experiment [1] lay in the range of 2 to 10 µM; in experiment [2], 10 to 20 µM; in experiment [3], 10 to 20 µM; in experiment [4], 10 to 20 µM; in experiment [5], 10 to 20 µM.

Turning to `N#Cc1cncc(-c2c(C(=O)/C=C/c3ccccn3)c(=O)[nH]c3ccc(Cl)cc23)c1` [Compound 106, 5-[3-((2E)-3-(2-pyridyl)prop-2-enoyl)-6-chloro-2-oxo-4-hydroquinolyl]pyridine-3-carbonitrile], the IC50 in experiment [1] was less than 2 µM; in experiment [2], more than 20 µM; in experiment [3], 10 to 20 µM; in experiment [4], more than 20 µM; in experiment [5] it was 10 to 20 µM.

As for `CCOC(=O)c1cncc(-c2c(C(=O)/C=C/c3ccccn3)c(=O)[nH]c3ccc(Cl)cc23)c1` [Compound 107, Ethyl 5-[3-((2E)-3-(2-pyridyl)prop-2-enoyl)-6-chloro-2-oxo-4-hydroquinolyl]pyridine-3-carboxylate], the IC50 was 2 to 10 µM in experiment [1]; more than 20 µM in experiment [2]; 10 to 20 µM in experiment [3]; 10 to 20 µM in experiment [4]; 10 to 20 µM in experiment [5].

On to `CN(C)c1ccc(-c2c(C(=O)/C=C/c3ccccn3)c(=O)[nH]c3ccc(Cl)cc23)cc1` [Compound 108, 3-((2E)-3-(2-pyridyl)prop-2-enoyl)-4-[4-(dimethylamino)phenyl]-6-chlorohydroquinolin-2-one], for which the IC50 lay in the range of 2 to 10 µM in experiment [1]; 2 to 10 µM in experiment [2]; 2 to 10 µM in experiment [3]; 10 to 20 µM in experiment [4]; 2 to 10 µM in experiment [5].

As to `CN(C)c1ccc(-c2c(C(=O)/C=C/c3cncc(F)c3)c(=O)[nH]c3ccc(Cl)cc23)cc1` [Compound 109, 3-[(2E)-3-(5-fluoro(3-pyridyl))prop-2-enoyl]-4-[4-(dimethylamino)phenyl]-6-chlorohydroquinolin-2-one], the half-inhibitory concentration (IC50) in experiment [1], in experiment [2], in experiment [3], in experiment [4] and in experiment [5] was 2 to 10 µM each time.
